Source: article PMC6065317, “Rice Defensin OsAFP1 is a New Drug Candidate against Human Pathogenic Fungi” (Scientific Reports, 2018)
Where two headings read alike, the source gives them in different places. Where a SMILES comes first, the peptide text is derived from it. Where no end group is shown, it is not given here.

Key:
[1] = system: Candida species; conditions: existing antifungal drugs; cited from earlier work
Description: In the present study, functional analyses of the antifungal activity of the rice-derived defensin OsAFP1 were performed. […] Since MIC values of the existing antifungal drugs, such as fluconazole, amphotericin B, and caspofungin, are in the 0.01–1 μM range[48], further engineering to enhance its function may be required before OsAFP1 can be used as a drug. On the other hand, OsAFP1 was extremely stable upon heat and serum treatments and exerted its antifungal activity by inducing apop ...

[2] = system: C. albicans CAI4 (IFM 61937); conditions: for IC50: OD650
Description: (§1) Seven microbial strains were used for OsAFP1 antimicrobial activity testing. P. gingivalis ATCC 33277 cells were cultured in modified Gifu anaerobic medium (GAM) (Nissui, Tokyo, Japan) in an anaerobic jar (Mitsubishi Gas Chemical, Tokyo, Japan) in the presence of a deoxygenating regent (AnaeroPack, Mitsubishi Gas Chemical) for 48 h at 37 °C. E. coli K-12 NBRC3301, S. mutans JCM 5705, S. aureus NBRC 12732, and P. acnes JCM 6473 cells were cultured in Luria-Bertani (LB) broth, brain-heart infusion broth (Nissui), trypticase soy broth (BD Biosciences, Franklin Lakes, NJ, USA), and GAM broth (Nissui), respectively, under facultative anaerobic conditions for 4–24 h at 37 °C. C. albicans CAI4 (IFM 61937) cells were cultured in 0.5 × potato dextrose broth (PDB) supplemented with 25 μg/ml of uridine under facultative anaerobic conditions for 14 h at 30 °C. S. cerevisiae BY4742 and S288C cells were cultured in 0.5 × PDB supplemented with 30 μg/ml of uridine, histidine, and lysine and 60 μg/ml of leucine under facultative anaerobic conditions for 14 h at 27 °C. These microbial strains were purchased from the American Type Culture Collection (Manassas, VA, USA), National Institute of Technology and Evaluation (Tokyo, Japan), RIKEN BioResource Center (Tsukuba, Japan), Medical Mycology Research Center (Chiba, Japan), and GE Healthcare (Little Chalfont, UK).
Antifungal assays to determine the MIC of OsAFP1 were performed as follows. Fungal cells (1 × 10^5 cells) were suspended in 100 μl of the appropriate medium containing 0–32 μM OsAFP1 in 96-well Costar cell culture plates. After incubation, OD650 was measured using a plate reader. […] In those cases, the cultures were plated on agar plates (0.5 × PDB), and the peptide concentration at which viable cell numbers were 1% or less than that in the control culture was considered the MIC. GraphPad Prism version 6.00 for Macintosh (GraphPad Software, La Jolla, CA, USA) was used to calculate IC50 values. Experiments were independently repeated at least three times. Detailed growth conditions for each fungus are provided in the “Microorganisms and culture conditions” section above.

[3] = system: C. albicans CAI4; experiment: Thermal stability (MIC of heat-treated peptide); format: cell-based, Candida albicans; conditions: peptide heated at 100 °C for 10 min, 0–8 μM, OD650, n = 3
Description: Antifungal assays to determine the MIC of OsAFP1 were performed as follows. Fungal cells (1 × 10^5 cells) were suspended in 100 μl of the appropriate medium containing 0–32 μM OsAFP1 in 96-well Costar cell culture plates. After incubation, OD650 was measured using a plate reader. […] In some measurements, because of aggregation of medium components, it was difficult to determine MIC values. In those cases, the cultures were plated on agar plates (0.5 × PDB), and the peptide concentration at which viable cell numbers were 1% or less than that in the control culture was considered the MIC. GraphPad Prism version 6.00 for Macintosh (GraphPad Software, La Jolla, CA, USA) was used to calculate IC50 values. Experiments were independently repeated at least three times. Detailed growth conditions for each fungus are provided in the “Microorganisms and culture conditions” section above.
Thermal stability of OsAFP1 was evaluated by comparing the MIC of heat-treated (10 min at 100 °C) peptide to the MIC of untreated peptide.

[4] = system: C. albicans CAI4 cytoplasmic membrane; experiment: PI uptake assay (flow cytometry); format: cell-based, Candida albicans; conditions: 4 × IC50 (6 μM melittin, 8 μM OsAFP1, 20 or 24 μM peptide 1, 40 μM peptide 7), 30 °C, 3 h, PI 5 μg/ml, PBS control 0.1 %
Description: C. albicans CAI4 cells (2 × 10^5 cells/ml) were treated with OsAFP1, peptide 1, peptide 7, or melittin at 4 × IC50 concentrations (8 μM for OsAFP1, 24 μM for peptide 1, 40 μM for peptide 7, and 6 μM for melittin[52],[53]) and incubated at 30 °C for 3 h. After the addition of PI (5 μg/ml) and incubation at room temperature in the dark for 30 min, the cells were analysed using a flow cytometer equipped with a 488 nm air-cooled argon laser. At least 10,000 events per sample were recorded. As a negative control, PBS was used instead of antifungal agents, and the mixtures were treated in the same way.

[5] = system: Saccharomyces cerevisiae BY4742; experiment: Antifungal assay (growth inhibition, OD650); format: cell-based; conditions: S. cerevisiae BY4742; 0.5 × PDB with supplements, 27 °C, 14 h; MIC = >99% reduction of OD650
Description: as §1, with “These microbial strains were purchased from the American Type Culture Collection (Manassas, VA, USA), National Institute of Technology and Evaluation (Tokyo, Japan), RIKEN BioResource Center (Tsukuba, Japan), Medical Mycology Research Center (Chiba, Japan), and GE Healthcare (Little Chalfont, UK).” left out
(§2) Antifungal assays to determine the MIC of OsAFP1 were performed as follows. […] After incubation, OD650 was measured using a plate reader. […]

[6] = system: Saccharomyces cerevisiae S288C; experiment: Antifungal assay (growth inhibition, OD650); format: cell-based; conditions: S. cerevisiae S288C; 0.5 × PDB with supplements, 27 °C, 14 h; MIC = >99% reduction of OD650
Description: as §1, with “These microbial strains were purchased from the American Type Culture Collection (Manassas, VA, USA), National Institute of Technology and Evaluation (Tokyo, Japan), RIKEN BioResource Center (Tsukuba, Japan), Medical Mycology Research Center (Chiba, Japan), and GE Healthcare (Little Chalfont, UK).” left out
as §2

[7] = system: C. albicans CAI4 cells; experiment: Annexin V assay (apoptosis, epifluorescence microscopy); format: cell-based, Candida albicans; conditions: 16 μM (4 × MIC), 30 °C, 0.5 h; epifluorescence microscope
Description: After being washed three times with KPB, the cells were resuspended in 500 μl of 1 × binding buffer and mixed with 5 μl each of annexin V-FITC and PI reagent (BioVision, Mountain View, CA, USA). The mixtures were incubated at room temperature in the dark for 5 min, and the cells were then observed under a TE2000-S epifluorescence microscope (Nikon, Tokyo, Japan) equipped with an appropriate objective lens [CFI Plan Fluor 100 × oil (Nikon)] and bandpass filters with 542 nm excitation and 620 nm emission for PI and 494 nm excitation and 518 nm emission for FITC.

[8] = system: Staphylococcus aureus subsp. aureus NBRC 12732; experiment: Antibacterial assay (BacTiter-Glo ATP luminescence); format: cell-based; conditions: S. aureus NBRC 12732; trypticase soy broth, 37 °C; 0–32 μM; MIC = >99% reduction of ATP luminescence
Description: as §1
(§3) Recombinant OsAFP1 and its mutants used in this study were prepared as described in “Supplementary Information”. Antibacterial assays to determine the MIC of OsAFP1 were performed using a modified BacTiter-Glo Luminescent cell viability assay kit (Promega, Madison, WI, USA). This assay quantifies ATP in bacterial cultures to determine the number of live cells. All procedures were performed following the manufacturer’s instructions. Briefly, bacterial cells (1 × 10^4 cells/ml) were cultured in 100 μl of the appropriate medium (as specified in the “Microorganisms and culture conditions” section) in the presence of 0–32 μM OsAFP1 in 96-well Costar cell culture plates. After appropriate incubation for 4–40 h, 10 μl of Lucifell ATP-eliminating reagent (Kikkoman, Chiba, Japan) was added to each well to reduce medium-derived ATP and mixed for 10 min using an orbital shaker. The cell culture (50 μl) was mixed gently with BacTiter-Glo reagent (50 μl) in a well of white Optiplate-96 plates. After incubation for 15 s, luminescence at 560 nm was measured using a plate reader. MIC was defined as the minimum concentration of OsAFP1 that reduced the sample ATP luminescence by >99% compared with that of the control culture. Experiments were independently repeated at least three times.

[9] = system: Escherichia coli K-12; experiment: as above; format: cell-based; conditions: E. coli K-12; LB broth, 37 °C; 0–32 μM; MIC = >99% reduction of ATP luminescence
Description: as §1, §3

[10] = system: Porphyromonas gingivalis ATCC 33277; experiment: as above; format: cell-based; conditions: P. gingivalis ATCC 33277; modified GAM, anaerobic, 37 °C; 0–32 μM; MIC = >99% reduction of ATP luminescence
Description: as §1, §3

[11] = system: Streptococcus mutans JCM 5705; experiment: as above; format: cell-based; conditions: S. mutans JCM 5705; brain-heart infusion broth, 37 °C; 0–32 μM; MIC = >99% reduction of ATP luminescence
Description: as §1, §3

[12] = system: Propionibacterium acnes JCM 6473; experiment: as above; format: cell-based; conditions: P. acnes JCM 6473; GAM broth, 37 °C; 0–32 μM; MIC = >99% reduction of ATP luminescence
Description: as §1, §3

[13] = system: C. albicans CAI4 cells; experiment: Fungicidal assay (CFU time course); format: cell-based, Candida albicans; conditions: 16 μM (4 × MIC), 30 °C, CFU count, n = 3
Description: C. albicans CAI4 cells (2 × 10^5 cells/ml) were treated with OsAFP1 and incubated at 30 °C for 0, 0.17, 0.5, 1, 2, and 4 h. After being washed three times with KPB, the cells were plated on agar plates (0.5 × PDB). Calculated CFUs in the plate were used as indicators of viable cells. […] Therefore, in the present assay, 4 × MIC concentration was used, because long-term OsAFP1 treatment may produce various undesirable effects other than fungicidal activity and make the assay difficult to interpret. 4 × MIC concentration was also applied in the subsequent annexin V assay and ICC staining analysis.

[14] = Table 2, synthetic partial peptides against C. albicans, tested up to 25 μM

C[C@@H]1[C@H](O)[C@@H](C)/C=C/C=C/C=C/C=C/C=C/C=C/C=C/[C@H](O[C@@H]2O[C@H](C)[C@@H](O)[C@H](N)[C@@H]2O)C[C@@H]2O[C@](O)(C[C@@H](O)C[C@@H](O)[C@H](O)CC[C@@H](O)C[C@@H](O)CC(=O)O[C@H]1C)C[C@H](O)[C@H]2C(=O)O [amphotericin B]
MIC values [1]: 0.01 to 1 µM

CSCC[C@H](NC(=O)CNC(=O)[C@H](CCCCN)NC(=O)[C@H](Cc1ccccc1)NC(=O)[C@H](CCCNC(=N)N)NC(=O)[C@H](Cc1c[nH]cn1)NC(=O)[C@@H](N)CO)C(=O)N[C@@H](CS)C(=O)N[C@H](C(=O)N[C@@H](CO)C(=O)O)C(C)C [compound 2] (H-SHRFKGMCVS-OH)
IC50 [2, 14]: 19 µM

CC(C)[C@H](N)C(=O)N[C@@H](CO)C(=O)N[C@@H](CO)C(=O)N[C@@H](CC(N)=O)C(=O)N[C@@H](CC(N)=O)C(=O)N[C@@H](CS)C(=O)N[C@@H](C)C(=O)N[C@@H](CC(N)=O)C(=O)N[C@H](C(=O)O)C(C)C [compound 3] (H-VSSNNCANV-OH)
IC50 [2, 14]: > 25 µM

C[C@@H](O)[C@H](NC(=O)[C@@H](N)CCCNC(=N)N)C(=O)N[C@@H](CCC(=O)O)C(=O)N[C@@H](CO)C(=O)N[C@@H](Cc1ccccc1)C(=O)N1CCC[C@H]1C(=O)N[C@@H](CC(=O)O)C(=O)NCC(=O)N[C@@H](CCC(=O)O)C(=O)O [compound 5] (H-RTESFPDGE-OH)
IC50 [2, 14]: > 25 µM

NCCCC[C@H](NC(=O)[C@H](CS)NC(=O)[C@H](CCC(=O)O)NC(=O)CNC(=O)[C@H](CC(=O)O)NC(=O)[C@@H]1CCCN1C(=O)[C@@H](N)Cc1ccccc1)C(=O)N[C@@H](CO)C(=O)N[C@@H](Cc1c[nH]cn1)C(=O)NCC(=O)O [compound 6] (H-FPDGECKSHG-OH)
IC50 [2, 14]: > 25 µM

OC(Cn1cncn1)(Cn1cncn1)c1ccc(F)cc1F [fluconazole]
MIC values [1]: 0.01 to 1 µM

CC(C)C[C@H](NC(=O)[C@H](CS)NC(=O)[C@H](Cc1c[nH]cn1)NC(=O)[C@@H](N)CCCNC(=N)N)C(=O)N[C@@H](CO)C(=O)N[C@@H](CCC(N)=O)C(=O)N[C@@H](CO)C(=O)N[C@@H](Cc1c[nH]cn1)C(=O)N[C@@H](CCCNC(=N)N)C(=O)N[C@@H](Cc1ccccc1)C(=O)O [peptide 1] (H-RHCLSQSHRF-OH)
IC50 [2, 14]: 6 µM

CC(C)C[C@H](NC(=O)CNC(=O)[C@H](Cc1c[nH]cn1)NC(=O)[C@H](CO)NC(=O)[C@@H](N)CCCCN)C(=O)N[C@@H](CCC(=O)O)C(=O)N[C@@H](CCCNC(=N)N)C(=O)N[C@@H](CCCCN)C(=O)N[C@@H](CS)C(=O)N[C@@H](Cc1ccccc1)C(=O)O [peptide 7] (H-KSHGLERKCF-OH)
IC50 [2, 14]: 10 µM

OsAFP1: rice defensin (Os02g41904, UniProtKB Q6K209); recombinant mature peptide produced in E. coli, four disulphide bonds (RHCLSQSHRFKGMCVSSNNCANVCRTESFPDGECKSHGLERKCFCKKVC; disulfide (positions not given here); UniProt Q6K209 32-80, looked up)
MIC ([2]; C. albicans CAI4, 1 × 10^5 cells in 100 μl 0.5 × PDB + 25 μg/ml uridine, 30 °C, 14 h, 0–32 μM, MIC = >99% reduction of OD650, repeated at least three times): 4 µM
IC50 ([2]; read-out: half maximal inhibitory concentration (IC50), C. albicans CAI4 growth, GraphPad Prism, wild-type OsAFP1 (Fig. 1a)): 2 µM
MIC of heat-treated peptide [3]: 8 µM
cells stained with PI [4]: 3.6%
MIC [5]: 4 µM
MIC [6]: 16 µM
annexin V-FITC fluorescence (early apoptosis) [7]: almost all fungal cells emitted fluorescence
MIC [8]: >32 µM
MIC [9]: >32 µM
MIC [10]: >32 µM
MIC [11]: >32 µM
MIC [12]: >32 µM
C. albicans cells died ([13]; 30 min): about 50%
C. albicans cells died ([13]; 4 h): almost all cells died

caspofungin
MIC values [1]: 0.01 to 1 µM
